Measured values published in patent US20260000070A1 (priority 2023, published 2026).

Tested on: endothelial cells / vascular system of perfused tissue

CNCC(O)c1ccc(O)c(O)c1 (centres unmarked) [adrenaline]
flow rate: decrease | pressure: increase
